Calls of active or inactive are those of the source. No rule for the calls is given here.
Test system: rodent carcinogenicity bioassays, tumor incidence
Assay: CCRIS carcinogenicity studies
Conditions: Dose: 0
Outline: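 NCI-built, expert-reviewed records of carcinogenicity and related test outcomes (mutagenicity, tumor promotion/inhibition) compiled from published and report sources, historical span 1985-2011, not updated.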

Q: For `ClCOCCOCCl`, which carcinogen call (Species: MOUSE, Strain/Sex: ICR/HA SWISS/FEMALE, Route: DERMAL, 1 MG IN 0.1 ML CYCLOHEXANE 3/WK FOR 502 D (STUDY DURATION: 570 D), Tumor Site: Type of Lesion: SKIN: PAPILLOMA, SKIN: SQUAMOUS CARCINOMA) is on record?
A: active; positive

Q: What about the carcinogen call (Species: MOUSE, Strain/Sex: ICR/HA SWISS/FEMALE, Route: INTRAPERITONEAL, 0.3 MG IN 0.05 ML TRICAPRYLIN 1/WK FOR 546 D (STUDY DURATION: 570 D), Tumor Site: Type of Lesion: PERITONEUM: SARCOMA) of the same compound?
A: active; positive

Q: And the carcinogen call (Species: MOUSE, Strain/Sex: ICR/HA SWISS/FEMALE, Route: SUBCUTANEOUS, 0.3 MG IN 0.05 ML TRICAPRYLIN 1/WK FOR 569 D (STUDY DURATION: 570 D), Tumor Site: Type of Lesion: INJECTION SITE: SARCOMA)?
A: active; positive

Q: What does the source list for `C/C=C/C=C/C=O`?
A: carcinogen call (Species: MOUSE, Strain/Sex: B6C3F1/FEMALE, Route: GAVAGE, 30, 60, 120 MG/KG IN CORN OIL 5 D/WK FOR DURATION OF STUDY (STUDY DURATION: 105 WK), 30, 60, 120 MG/KG IN CORN OIL 5 D/WK FOR DURATION OF STUDY (STUDY DURATION: 105 WK), Tumor Site: Type of Lesion: FORESTOMACH: SQUAMOUS CELL PAPILLOMA, SQUAMOUS CELL CARCINOMA, SQUAMOUS CELL PAPILLOMA OR CARCINOMA): active; positive; carcinogen call (Species: MOUSE, Strain/Sex: B6C3F1/MALE, Route: GAVAGE, 30, 60, 120 MG/KG IN CORN OIL 5 D/WK FOR DURATION OF STUDY (STUDY DURATION: 105 WK), 30, 60, 120 MG/KG IN CORN OIL 5 D/WK FOR DURATION OF STUDY (STUDY DURATION: 105 WK), Tumor Site: Type of Lesion: FORESTOMACH: SQUAMOUS CELL PAPILLOMA, SQUAMOUS CELL CARCINOMA, SQUAMOUS CELL PAPILLOMA OR CARCINOMA): active; positive; carcinogen call (Species: RAT, Strain/Sex: F344/FEMALE, Route: GAVAGE, 22.5, 45, 90 MG/KG IN CORN OIL 5 D/WK FOR DURATION OF STUDY (STUDY DURATION: 105 WK), 22.5, 45, 90 MG/KG IN CORN OIL 5 D/WK FOR DURATION OF STUDY (STUDY DURATION: 105 WK), Tumor Site: Type of Lesion: FORESTOMACH: SQUAMOUS CELL PAPILLOMA): active; positive; carcinogen call (Species: RAT, Strain/Sex: F344/MALE, Route: GAVAGE, 22.5, 45, 90 MG/KG IN CORN OIL 5 D/WK FOR DURATION OF STUDY (STUDY DURATION: 105 WK), 22.5, 45, 90 MG/KG IN CORN OIL 5 D/WK FOR DURATION OF STUDY (STUDY DURATION: 105 WK), Tumor Site: Type of Lesion: FORESTOMACH: SQUAMOUS CELL PAPILLOMA, SQUAMOUS CELL CARCINOMA, SQUAMOUS CELL PAPILLOMA OR CARCINOMA): active; positive

Q: `O=C(O)COc1ccc(Cl)cc1Cl` was tested. Which carcinogen call (Species: MOUSE, Strain/Sex: B6C3F1/FEMALE, Route: ORAL, 5, 150, 300 MG/KG BW DAILY FOR 2 YR (STUDY DURATION: 2 YR), 5, 150, 300 MG/KG BW DAILY FOR 2 YR (STUDY DURATION: 2 YR)) did it give?
A: inactive; negative

Q: And the carcinogen call (Species: MOUSE, Strain/Sex: B6C3F1/MALE, Route: ORAL, 5, 62.5, 125 MG/KG BW DAILY FOR 2 YR (STUDY DURATION: 2 YR), 5, 62.5, 125 MG/KG BW DAILY FOR 2 YR (STUDY DURATION: 2 YR))?
A: inactive; negative

Q: What about the carcinogen call (Species: RAT, Strain/Sex: F344/FEMALE, Route: ORAL, 5, 75, 150 MG/KG BW DAILY FOR 2 YR (STUDY DURATION: 2 YR), 5, 75, 150 MG/KG BW DAILY FOR 2 YR (STUDY DURATION: 2 YR)) of the same compound?
A: inactive; negative

Q: What about the carcinogen call (Species: RAT, Strain/Sex: F344/MALE, Route: ORAL, 5, 75, 150 MG/KG BW DAILY FOR 2 YR (STUDY DURATION: 2 YR), 5, 75, 150 MG/KG BW DAILY FOR 2 YR (STUDY DURATION: 2 YR)) of the same compound?
A: inactive; negative

Q: Which carcinogen call (Species: MOUSE, Strain/Sex: SWISS/FEMALE, Route: INTRAPERITONEAL, 100 NMOL (TOTAL DOSE) ADMINISTERED 1/7, 2/7 AND 4/7 ON DAY 1, 8 AND 15 RESPECTIVELY (STUDY DURATION: 32 WK)) does the source give for `Cc1c([N+](=O)[O-])c2ccccc2c2ccc3ccccc3c12` here?
A: inactive; negative

Q: What about the carcinogen call (Species: MOUSE, Strain/Sex: SWISS/MALE, Route: INTRAPERITONEAL, 100 NMOL (TOTAL DOSE) ADMINISTERED 1/7, 2/7 AND 4/7 ON DAY 1, 8 AND 15 RESPECTIVELY (STUDY DURATION: 32 WK), Tumor Site: Type of Lesion: LIVER: TUMOR) of the same compound?
A: active; positive

Q: What does the source list for `CCCCC(CC)COC(=O)c1ccc(C(=O)OCC(CC)CCCC)cc1` (stereo not given)?
A: carcinogen call (Species: Rat, Strain/Sex: Fischer 344/Female, Route: Oral, 1500, 6000, 12,000 ppm in diet for 104 wk (average daily dose 0, 102, 418, 901 mg/kg/day), 1500, 6000, 12,000 ppm in diet for 104 wk (average daily dose 0, 102, 418, 901 mg/kg/day)): inactive; negative; carcinogen call (Species: Rat, Strain/Sex: Fischer 344/Male, Route: Oral, 1500, 6000, 12,000 ppm in diet for 104 wk (average daily dose 0, 79, 324, 666 mg/kg/day), 1500, 6000, 12,000 ppm in diet for 104 wk (average daily dose 0, 79, 324, 666 mg/kg/day)): inactive; negative

Q: For `Nc1ccc(N(CCO)CCO)cc1`, which carcinogen call (Species: RAT, Strain/Sex: F344/FEMALE, Route: ORAL, 300, 1000, 3000 PPM IN DIET FOR 104 WK (STUDY DURATION: 104 WK), 300, 1000, 3000 PPM IN DIET FOR 104 WK (STUDY DURATION: 104 WK)) is on record?
A: inactive; negative

Q: And the carcinogen call (Species: RAT, Strain/Sex: F344/MALE, Route: ORAL, 300, 1000, 3000 PPM IN DIET FOR 104 WK (STUDY DURATION: 104 WK), 300, 1000, 3000 PPM IN DIET FOR 104 WK (STUDY DURATION: 104 WK))?
A: inactive; negative

Q: With `CCOC(=O)c1ccccc1C(=O)OCC` as the compound, how does the carcinogen call (Species: MOUSE, Strain/Sex: B6C3F1/FEMALE, Route: DERMAL, 7.5, 15, 30 µL/100 µL IN ACETONE 5 D/WK FOR 104-105 WK (STUDY DURATION: 104-105 WK), 7.5, 15, 30 µL/100 µL IN ACETONE 5 D/WK FOR 104-105 WK (STUDY DURATION: 104-105 WK), Tumor Site: Type of Lesion: LIVER: HEPATOCELLULAR ADENOMA, HEPATOCELLULAR ADENOMA OR CARCINOMA) read?
A: equivocal

Q: And the carcinogen call (Species: MOUSE, Strain/Sex: B6C3F1/MALE, Route: DERMAL, 7.5, 15, 30 µL/100 µL IN ACETONE 5 D/WK FOR 104-105 WK (STUDY DURATION: 104-105 WK), 7.5, 15, 30 µL/100 µL IN ACETONE 5 D/WK FOR 104-105 WK (STUDY DURATION: 104-105 WK), Tumor Site: Type of Lesion: LIVER: HEPATOCELLULAR ADENOMA, HEPATOCELLULAR ADENOMA OR CARCINOMA)?
A: equivocal

Q: What about the carcinogen call (Species: RAT, Strain/Sex: F344/FEMALE, Route: DERMAL, 100, 300 µL IN ACETONE 5 D/WK FOR 104 WK (STUDY DURATION: 104 WK), 100, 300 µL IN ACETONE 5 D/WK FOR 104 WK (STUDY DURATION: 104 WK)) of the same compound?
A: inactive; negative

Q: What about the carcinogen call (Species: RAT, Strain/Sex: F344/MALE, Route: DERMAL, 100, 300 µL IN ACETONE 5 D/WK FOR 104 WK (STUDY DURATION: 104 WK), 100, 300 µL IN ACETONE 5 D/WK FOR 104 WK (STUDY DURATION: 104 WK)) of the same compound?
A: inactive; negative

Q: With `[Cl][Fe]([Cl])[Cl]` as the compound, how does the carcinogen call (Species: RAT, Strain/Sex: F344/FEMALE, Route: ORAL, 0.25, 0.5% IN DRINKING WATER FOR 104 WK (STUDY DURATION: 112 WK), 0.25, 0.5% IN DRINKING WATER FOR 104 WK (STUDY DURATION: 112 WK)) read?
A: inactive; negative

Q: What about the carcinogen call (Species: RAT, Strain/Sex: F344/MALE, Route: ORAL, 0.25, 0.5% IN DRINKING WATER FOR 104 WK (STUDY DURATION: 112 WK), 0.25, 0.5% IN DRINKING WATER FOR 104 WK (STUDY DURATION: 112 WK)) of the same compound?
A: inactive; negative

Q: What does the source list for `Nc1cc(Cl)ccc1O`?
A: carcinogen call (Species: Rat, Strain/Sex: F344/DuCrlCrlj / Female, Route: Oral, 1280, 3200, 8000 ppm in diet for 2 yr study duration, 1280, 3200, 8000 ppm in diet for 2 yr study duration, Tumor Site: Type of Lesion: Forestomach: squamous cell papilloma/carcinoma): active; positive; carcinogen call (Species: Rat, Strain/Sex: F344/DuCrlCrlj / Male, Route: Oral, 1280, 3200, 8000 ppm in diet for 2 yr study duration, 1280, 3200, 8000 ppm in diet for 2 yr study duration, Tumor Site: Type of Lesion: Forestomach: squamous cell papilloma/carcinoma. Urinary bladder: papilloma/carcinoma): active; positive
